Peptide text beside a SMILES is read from it.
Test system: mTOR
Assay: mTOR activity by immunoblotting of S6K1 (T389) and ULK1 (S757) phosphorylation in HEK293T cells
Format: cell-based
Protocol: (A) Dose-response analysis of mTOR activity in HEK293T cells treated with glycyl-L-phenylalanine 2-naphththylamide (GPN) in full medium for 1 h. mTOR activity was monitored by inununoblotting analysis of S6K1 (T389) and ULK1 (S757) phosphorylation (phosphorylated S6K (T389) and ULK1 (S757) relative to total S6K and ULK1, respectively). (B) Analysis of mTOR activity (as in A) after GPN washout. HEK293T cells were treated with 100 μM GPN for 1 h followed by 1 h washout in full medium. Data, means±SEM (n=3), **p<0.01, ANOVA. (C) Analysis of mTOR activity (as in A) in HEK293T cells treated with increasing doses of silica in full medium for 1 h. (D) HEK293T cells were treated with lysosomal damaging agents (LLOMe, Leu-Leu-OMe) for 1 h in full medium and status of acidified organelles assessed by quantifying LysoTracker Red DND-99 puncta using automated high-content imaging and analysis (HC). None-treated cells were as control (Ctrl). White masks, algorithm defined cell boundaries (primary objects); yellow masks, computer-identified LysoTracker Red puncta (target objects). Data, means±SEM, n≥3 independent experiments (500 primary objects counted per well; ≥5 wells/sample per each experiment), **p<0.01, ANOVA. (E) Analysis of mTOR activity in primary human macrophages treated with GPN. Human peripheral blood monocyte derived macrophages were treated with 100 μM GPN in full medium or starved in EBSS for 1 h, and mTOR activity measured as in A. None-treated cells were as control (Ctrl). (F) Quantification by HC of overlaps between mTOR and LAMP2 (representative images shown in FIG. S1D) in HeLa cells treated with lysosomal damaging agents for 1 h in full medium. Data, means±SEM, n≥3 independent experiments (500 primary objects counted per well; ≥5 wells/sample per each experiment) **p<0.01, ANOVA. (G) Immunofluorescence confocal microscopy visualization of mTOR localization relative to LAMP2-positive lysosomes. […] (H) Analysis of TFEB nuclear translocation in HeLa cells treated with 100 μM GPN in full medium for 1 h, and the nuclear translocation of TFEB was measured by HC (Nuclei, Hoechst 33342, blue pseudocolor; TFEB red fluorescence, Alexa-568). […] White masks, computer algorithm-defined cell boundaries (primary objects); pink masks, computer-identified nuclear TFEB based on the average intensity of Alexa-568 fluorescence. Data, means±SEM, n≥3 independent experiments (500 primary objects counted per well; ≥5 wells/sample per each experiment), **p<0.01, ANOVA. (I) HeLa cells were treated as indicated in full medium for 1 h, and LC3 puncta were quantified by HC. […] Data, means±SEM, n≥3 independent experiments (500 primary objects counted per well; ≥5 wells/sample per each experiment), **p<0.01, ANOVA. […]

For `NCC(=O)N[C@@H](Cc1ccccc1)C(=O)Nc1ccc2ccccc2c1` [GPN, glycyl-L-phenylalanine 2-naphththylamide] (HELM PEPTIDE1{G.F.[c1ccc2cc(N[*:1])ccc2c1]}$$$$V2.0), the “mTOR activity after washout” value (100 μM GPN for 1 h followed by 1 h washout in full medium) was “reversed”, the “mTOR activity (phosphorylation of its substrates S6K1 and ULK1)” value (HEK293T cells, full medium, 1 h) was “diminished mTOR activity” and the “mTOR activity (S6K1 phosphorylation) in cells expressing constitutively active RagBQ99L” value (HEK293T stably expressing RagBQ99L, 100 μM GPN 1 h) was “not the case”.
